Data: patent US20250262201A1, “COMPOUNDS AND METHODS USEFUL FOR STABILIZING PHENYLALANINE HYDROXYLASE MUTATIONS” (Agios Pharmaceuticals, Inc., priority 2022, published 2025)

Target: T1, human PAH with the R408W mutation (Homo sapiens, UniProt P00439, R408W)
T1 construct: expressed in transfected cells
T1 sequence (P00439 1-452 R408W): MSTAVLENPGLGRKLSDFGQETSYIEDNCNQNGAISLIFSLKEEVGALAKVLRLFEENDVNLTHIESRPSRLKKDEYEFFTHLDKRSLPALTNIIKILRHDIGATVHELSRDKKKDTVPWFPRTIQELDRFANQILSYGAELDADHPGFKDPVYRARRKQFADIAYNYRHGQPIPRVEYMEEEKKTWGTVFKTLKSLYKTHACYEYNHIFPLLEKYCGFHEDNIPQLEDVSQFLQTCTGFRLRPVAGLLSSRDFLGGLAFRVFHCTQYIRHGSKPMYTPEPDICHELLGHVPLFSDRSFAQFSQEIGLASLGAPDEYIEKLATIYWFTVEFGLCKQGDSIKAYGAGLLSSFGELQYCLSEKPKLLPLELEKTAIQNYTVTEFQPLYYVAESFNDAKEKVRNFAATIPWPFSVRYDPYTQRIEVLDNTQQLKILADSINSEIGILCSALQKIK
Assay: Cell Based Phenylalanine Flux Assay
Settings: A375 cells expressing human R408W PAH; 24 hrs compound incubation; 13C-Tyrosine by LC-MS; average where tested multiple times; read-out: AC50

AC50 [nM]	SMILES
500 to 1000	O=C(c1cnc(-c2ccccn2)o1)N1CCc2[nH]cnc2C1c1ccc2ccccc2n1 (stereo in doubt) [Example 61, (R)-(2-(pyridin-2-yl)oxazol-5-yl)(4-(quinolin-2-yl)-6,7-dihydro-1H-imidazo[4,5-c]pyridin-5(4H)-yl)methanone]
> 5000	O=C(c1cnc(-c2ccccn2)o1)N1CCc2[nH]cnc2C1c1ccc2ccccc2n1 (stereo in doubt) [Example 62, (S)-(2-(pyridin-2-yl)oxazol-5-yl)(4-(quinolin-2-yl)-6,7-dihydro-1H-imidazo[4,5-c]pyridin-5(4H)-yl)methanone]
< 500	O=C(c1nnc(-c2cnn(C(F)F)c2)o1)N1CCc2[nH]cnc2C1c1ccc2ccccc2n1 (stereo in doubt) [Example 63, (R)-(5-(1-(difluoromethyl)-1H-pyrazol-4-yl)-1,3,4-oxadiazol-2-yl)(4-(quinolin-2-yl)-6,7-dihydro-1H-imidazo[4,5-c]pyridin-5(4H)-yl)methanone]
> 5000	O=C(c1nnc(-c2cnn(C(F)F)c2)o1)N1CCc2[nH]cnc2C1c1ccc2ccccc2n1 (stereo in doubt) [Example 64, (S)-(5-(1-(difluoromethyl)-1H-pyrazol-4-yl)-1,3,4-oxadiazol-2-yl)(4-(quinolin-2-yl)-6,7-dihydro-1H-imidazo[4,5-c]pyridin-5(4H)-yl)methanone]
< 500	O=C(c1oc(-c2ccccn2)nc1C(F)F)N1CCc2[nH]cnc2C1c1ccc2ccccc2n1 (stereo in doubt) [Example 65, (R)-(4-(difluoromethyl)-2-(pyridin-2-yl)oxazol-5-yl)(4-(quinolin-2-yl)-6,7-dihydro-1H-imidazo[4,5-c]pyridin-5(4H)-yl)methanone]
500 to 1000	O=C(c1nnc(-c2ccc(F)c(F)c2)o1)N1CCc2[nH]cnc2C1c1ccc2ccccc2n1 (stereo in doubt) [Example 69, (R)-(5-(3,4-difluorophenyl)-1,3,4-oxadiazol-2-yl)(4-(quinolin-2-yl)-6,7-dihydro-1H-imidazo[4,5-c]pyridin-5(4H)-yl)methanone]
> 5000	O=C(c1nnc(-c2ccc(F)c(F)c2)o1)N1CCc2[nH]cnc2C1c1ccc2ccccc2n1 (stereo in doubt) [Example 70, (S)-(5-(3,4-difluorophenyl)-1,3,4-oxadiazol-2-yl)(4-(quinolin-2-yl)-6,7-dihydro-1H-imidazo[4,5-c]pyridin-5(4H)-yl)methanone]
< 500	O=C(c1oc(C2CC(F)(F)C2)nc1C(F)F)N1CCc2[nH]cnc2C1c1ccc2ccccc2n1 (stereo in doubt) [Example 71, (R)-(2-(3,3-difluorocyclobutyl)-4-(difluoromethyl)oxazol-5-yl)(4-(quinolin-2-yl)-6,7-dihydro-1H-imidazo[4,5-c]pyridin-5(4H)-yl)methanone]
1000 to 5000	O=C(c1oc(C2CC(F)(F)C2)nc1C(F)F)N1CCc2[nH]cnc2C1c1ccc2ccccc2n1 (stereo in doubt) [Example 72, (S)-(2-(3,3-difluorocyclobutyl)-4-(difluoromethyl)oxazol-5-yl)(4-(quinolin-2-yl)-6,7-dihydro-1H-imidazo[4,5-c]pyridin-5(4H)-yl)methanone]
500 to 1000	Cn1nc(C(F)F)cc1C(=O)N1CCc2[nH]cnc2C1c1ccc2ccccc2n1 (stereo in doubt) [Example 73, (R)-(3-(difluoromethyl)-1-methyl-1H-pyrazol-5-yl)(4-(quinolin-2-yl)-6,7-dihydro-1H-imidazo[4,5-c]pyridin-5(4H)-yl)methanone]
1000 to 5000	Cn1nc(C(F)F)cc1C(=O)N1CCc2[nH]cnc2C1c1ccc2ccccc2n1 (stereo in doubt) [Example 74, (S)-(3-(difluoromethyl)-1-methyl-1H-pyrazol-5-yl)(4-(quinolin-2-yl)-6,7-dihydro-1H-imidazo[4,5-c]pyridin-5(4H)-yl)methanone]
500 to 1000	O=C(c1nnc(-c2ccc(F)cc2F)o1)N1CCc2[nH]cnc2C1c1ccc2ccccc2n1 (stereo in doubt) [Example 75, (R)-(5-(2,4-difluorophenyl)-1,3,4-oxadiazol-2-yl)(4-(quinolin-2-yl)-6,7-dihydro-1H-imidazo[4,5-c]pyridin-5(4H)-yl)methanone]
> 5000	O=C(c1nnc(-c2ccc(F)cc2F)o1)N1CCc2[nH]cnc2C1c1ccc2ccccc2n1 (stereo in doubt) [Example 76, (S)-(5-(2,4-difluorophenyl)-1,3,4-oxadiazol-2-yl)(4-(quinolin-2-yl)-6,7-dihydro-1H-imidazo[4,5-c]pyridin-5(4H)-yl)methanone]
< 500	COCc1nc(C(F)F)c(C(=O)N2CCc3[nH]cnc3C2c2ccc3ccccc3n2)o1 (stereo in doubt) [Example 77, (R)-(4-(difluoromethyl)-2-(methoxymethyl)oxazol-5-yl)(4-(quinolin-2-yl)-6,7-dihydro-1H-imidazo[4,5-c]pyridin-5(4H)-yl)methanone]
< 500	COCc1nc(C(F)F)c(C(=O)N2CCc3[nH]cnc3C2c2ccc3ccccc3n2)o1 (stereo in doubt) [Example 78, (S)-(4-(difluoromethyl)-2-(methoxymethyl)oxazol-5-yl)(4-(quinolin-2-yl)-6,7-dihydro-1H-imidazo[4,5-c]pyridin-5(4H)-yl)methanone]
500 to 1000	Cn1ncnc1C(=O)N1CCc2[nH]cnc2C1c1ccc2ccccc2n1 (stereo in doubt) [Example 80, (2-methyl-1,2,4-triazol-3-yl)-[(4R)-4-(2-quinolyl)-1,4,6,7-tetrahydroimidazo[4,5-c]pyridin-5-yl]methanone]
< 500	O=C(c1ccnn1C(F)F)N1CCc2[nH]cnc2C1c1ccc2ccccc2n1 (stereo in doubt) [Example 81, (R)-(1-(difluoromethyl)-1H-pyrazol-5-yl)(4-(quinolin-2-yl)-6,7-dihydro-1H-imidazo[4,5-c]pyridin-5(4H)-yl)methanone]
> 5000	O=C(c1ccnn1C(F)F)N1CCc2[nH]cnc2C1c1ccc2ccccc2n1 (stereo in doubt) [Example 82, (S)-(1-(difluoromethyl)-1H-pyrazol-5-yl)(4-(quinolin-2-yl)-6,7-dihydro-1H-imidazo[4,5-c]pyridin-5(4H)-yl)methanone]
< 500	Cn1cc(C(=O)N2CCc3[nH]cnc3C2c2ccc3ccccc3n2)c(C(F)F)n1 (stereo in doubt) [Example 83, (R)-(3-(difluoromethyl)-1-methyl-1H-pyrazol-4-yl)(4-(quinolin-2-yl)-6,7-dihydro-1H-imidazo[4,5-c]pyridin-5(4H)-yl)methanone]
1000 to 5000	Cn1cc(C(=O)N2CCc3[nH]cnc3C2c2ccc3ccccc3n2)c(C(F)F)n1 (stereo in doubt) [Example 84, (S)-(3-(difluoromethyl)-1-methyl-1H-pyrazol-4-yl)(4-(quinolin-2-yl)-6,7-dihydro-1H-imidazo[4,5-c]pyridin-5(4H)-yl)methanone]
< 500	Cn1ccc(-c2nnc(C(=O)N3CCc4[nH]cnc4C3c3ccc4ccccc4n3)o2)n1 (stereo in doubt) [Example 85, (R)-(5-(1-methyl-1H-pyrazol-3-yl)-1,3,4-oxadiazol-2-yl)(4-(quinolin-2-yl)-6,7-dihydro-1H-imidazo[4,5-c]pyridin-5(4H)-yl)methanone]
1000 to 5000	Cn1ccc(-c2nnc(C(=O)N3CCc4[nH]cnc4C3c3ccc4ccccc4n3)o2)n1 (stereo in doubt) [Example 86, (S)-(5-(1-methyl-1H-pyrazol-3-yl)-1,3,4-oxadiazol-2-yl)(4-(quinolin-2-yl)-6,7-dihydro-1H-imidazo[4,5-c]pyridin-5(4H)-yl)methanone]
< 500	Cn1cc(C(=O)N2CCc3[nH]cnc3C2c2ccc3ccccc3n2)c(Cl)n1 (stereo in doubt) [Example 88, (R)-(3-chloro-1-methyl-1H-pyrazol-4-yl)(4-(quinolin-2-yl)-6,7-dihydro-1H-imidazo[4,5-c]pyridin-5(4H)-yl)methanone]
< 500	O=C(c1nnc(-c2ncccc2F)o1)N1CCc2[nH]cnc2C1c1ccc2ccccc2n1 (stereo in doubt) [Example 89, (R)-(5-(3-fluoropyridin-2-yl)-1,3,4-oxadiazol-2-yl)(4-(quinolin-2-yl)-6,7-dihydro-1H-imidazo[4,5-c]pyridin-5(4H)-yl)methanone]
1000 to 5000	O=C(c1nnc(-c2ncccc2F)o1)N1CCc2[nH]cnc2C1c1ccc2ccccc2n1 (stereo in doubt) [Example 90, (S)-(5-(3-fluoropyridin-2-yl)-1,3,4-oxadiazol-2-yl)(4-(quinolin-2-yl)-6,7-dihydro-1H-imidazo[4,5-c]pyridin-5(4H)-yl)methanone]
< 500	CC(C)(O)c1nc(C(F)F)c(C(=O)N2CCc3[nH]cnc3C2c2ccc3ccccc3n2)o1 (stereo in doubt) [Example 91, (R)-(4-(difluoromethyl)-2-(2-hydroxypropan-2-yl)oxazol-5-yl)(4-(quinolin-2-yl)-6,7-dihydro-1H-imidazo[4,5-c]pyridin-5(4H)-yl)methanone]
1000 to 5000	CC(C)(O)c1nc(C(F)F)c(C(=O)N2CCc3[nH]cnc3C2c2ccc3ccccc3n2)o1 (stereo in doubt) [Example 92, (S)-(4-(difluoromethyl)-2-(2-hydroxypropan-2-yl)oxazol-5-yl)(4-(quinolin-2-yl)-6,7-dihydro-1H-imidazo[4,5-c]pyridin-5(4H)-yl)methanone]
